The conditions of experiment [1]: normobaric conditions, cited from earlier work.
The test system of experiment [2] is injured retinal ganglion cells. The experiment is described as follows: Annexin V-PeCy7 flow cytometric evaluation of early apoptosis in injured retinal ganglion cells after unilateral optic nerve axotomy. The experiment is classed as in vivo, B6.Cg-Tg(Thy1-YFP)16Jrs/J mice. An excerpt: B6.Cg-Tg(Thy1-YFP)16Jrs/J mice: Thy1-YFP mice were exposed to a vapor anesthetic agent (Isofluorane or Sevofluorane), in an anesthetic induction chamber. Animals were temperature probed, sterile eye lubricant was applied to prevent corneal damage, and an incision was made adjacent to the orbital ridge. The left orbit was exposed, and the lacrimal gland gently resected and covered with saline soaked gauze. […] Using microscissors, the dura was resected, and the optic nerve was transected approximately 0.5 mm from the posterior aspect of the eye bulb. Preservation of blood supply was evaluated through the dissecting microscope focused through a dilated pupil and a coverslip. The skin was closed with suture clips, analgesics (buprenorphine in saline) administered, and the mouse was transferred to an Argon (70%)/Oxygen (30%) perfused air chamber on a warming mat. […] Control mice were exposed to normal atmospheric conditions post-injury (See FIG. 1). Internal surgical controls were the uninjured retina of the contralateral eye.
Retinal Dissection, dissociation, and staining of cells: Mice were lightly anesthetized with Isofluorane and killed via cervical dislocation. Eyes were rapidly removed and placed in ice cold Hank's Balanced Salt Solution (HBSS). A single puncture to the conjunctiva was made, and corneas removed by microdissection. The ciliary epithelium and lens were then resected, and vitreous humor was visualized using triamcinolone acetonide solution to aid in removal by aspiration and microdissection. Free floating retinas were then transferred to fresh HBSS on ice, then transferred to 1 ml of enzyme solution containing Trypsin (MACS—Miltenyi Biotec). Following a 15 minute incubation at 37 degrees C. with periodic agitation, retinas were dissociated with fire polished pipettes and centrifuged. Pellets were washed in Annexin V binding buffer, and centrifuged. Pellets were the re-dissociated in DNAse-containing binding buffer, and stained for Annexin V-PeCy7 probe. Cells were washed, cell strained (40 um), and analyzed using a BD FacsAria III flow cytometer.
Flow cytometry and data analysis: Compensation and gating was established using unstained, YFP-only, Annexin V-only, and double-labeled cell samples. Dead cell assays (not shown) were also performed using propidium iodide and 7-AAD DNA intercalating dyes. Forward and side scatter gating were used to exclude debris, and YFP-positive cells were gated and used as the reference population. Quadrant analysis was used to identify and quantify Annexin V labeling within YFP expressing cells across groups. A within-subjects comparison was performed by comparing injured and uninjured retinas from the same animal. Difference scores (uninjured—injured Annexin V cell counts) were produced in order to normalize Annexin V background labeling in right eyes. All data are represented as means +/−1.0 standard error of the mean.
(In general: A flow cytometer gives signals particle by particle.)

Regarding `[Xe]` [Xenon, xenon, reference compound], the “concentration with capacity to provide anesthesia” value in experiment [1] is 71%.

As to `[Ar]` [argon], the “difference score (uninjured - injured Annexin V cell counts within YFP-positive population)” value in experiment [2] (24 h post-injury, Argon (70%)/Oxygen (30%) chamber after surgery under Isofluorane or Sevofluorane, buprenorphine) was “positive difference score”. For the same compound, in experiment [2] (48 h post-injury, Argon (70%)/Oxygen (30%) chamber post-injury), the “Annexin V binding in injured retinas” value is recorded as “strong resistance to Annexin V binding”. In addition, the neuroprotection result in experiment [2] (72 hours post-injury) is “retained at 72 hours”. The “neuroprotective effect in combination with liquid anesthetics” value in experiment [2] (overall conclusion from the data) is given as “provides a neuroprotective effect within the central nervous system”. Also, the “time of peak of neuroprotection effect size” value in experiment [2] (post-injury, Argon (70%)/Oxygen (30%)) is on record as “around 48 h”. For the same compound, the anesthetic effects entry in experiment [1] (high inspiratory concentrations) is “does not provide anesthetic effects”.

Source of the values: US20160199406A1, “NON-[…] IN COMBINATION WITH LIQUID […] FOR ORGAN PROTECTION” (priority 2013, published 2016).
